Source: patent US20090104265A1, “Polymorphs of N-(4-chloro-3-methyl-5-isoxazolyl) 2-[2-methyl-4,5-(methylenedioxy)phenylacetyl] thiophene-3-sulfonamide, sodium salt” (priority 2006, published 2009)
“Also recorded” adds a separate entry of the source. Read-outs that look alike come from different tables or passages of the source.

Assays:
[1] = Moisture sorption/desorption (moisture balance); assay type: physicochemical; details: for weight loss at 5% RH: sample not dried prior to analysis; for hygroscopicity: based on moisture sorption/desorption data
Procedure: The moisture sorption/desorption data was collected on a VT SGA-100 moisture balance system. […] The sample was not dried prior to analysis. Equilibrium criteria used for analysis was less than 0.0100% weight change in 5 minutes with a maximum equilibration time of 3 hours if the weight criterion was not met. Data was not corrected for the initial moisture content of the samples.

[2] = Interconversion studies of Forms A and B; assay type: physicochemical
Text: The interconversion of Forms A and B were preformed using ethyl acetate and 95% isopropanol:water. […] The interconversions in ethyl acetate yielded a mixture of Forms A and B, which is probably due to the low solublility of the materials.

[3] = ambient temperature, sodium salt
physchem = details: thermodynamic from solid, SOLUBILITY (mg/mL), ambient temperature
[4] = listed as Sample lot I Form A, sodium salt
[5] = listed as Sample lot III Form A, sodium salt
[6] = listed as Sample lot IV Form A, sodium salt

Cc1cc2c(cc1CC(=O)c1sccc1S(=O)(=O)Nc1onc(C)c1Cl)OCO2.[Na] [Amorphous, N-(4-chloro-3-methyl-5-isoxazolyl)-2-[2-methyl-4,5-(methylenedioxy)phenylacetyl]thiophene-3-sulfonamide, sodium salt]
weight loss at 5% RH [1]: 1.4% weight loss at 5% RH, | total weight gain at 95% RH ([1]; listed as amorphous form, sodium salt): 22% | total weight gain at 95% RH ([1]; sodium salt): 22.0.% total weight gain at 95% RH | hygroscopicity [1]: highly hygroscopic

Cc1cc2c(cc1CC(=O)c1sccc1S(=O)(=O)[N-]c1onc(C)c1Cl)OCO2.[Na+] [Form A, N-(4-chloro-3-methyl-5-isoxazolyl)-2-[2-methyl-4,5-(methylenedioxy)phenylacetyl]thiophene-3-sulfonamide, sodium salt]
weight loss at 5% RH [1, 4]: 0.18% weight loss at 5% RH, | weight loss at 5% RH [1, 5]: 0.04% weight loss at 5% RH, | weight loss at 5% RH [1, 6]: 0.05% weight loss at 5% RH, | weight loss at 5% RH ([1]; sodium salt): minimal weight | total weight gain at 95% RH [1, 4]: 1.48% total weight gain at 95% RH | total weight gain at 95% RH [1, 5]: 1.08% total weight gain at 95% RH | total weight gain at 95% RH [1, 6]: 1.10% total weight gain at 95% RH | total weight gain at 95% RH ([1]; sodium salt): less than 1.5% | hygroscopicity ([1]; sodium salt): non-hygroscopic up to 75% RH; also recorded: nonhygroscopic | relative thermodynamic stability of the forms ([2]; interconversion in 95% isopropanol:water): more thermodynamically stable form | relative stability of the forms ([2]; interconversion studies in ethyl acetate (so in the source)): most stable form | relative thermodynamic stability of the forms ([2]; interconversion studies, solvent not stated): more thermodynamically stable form | solubility ([3]; N,N-dimethylformamide (DMF)): >228 mg/mL | solubility ([3]; chloroform): <3 mg/mL | solubility ([3]; dichloromethane): <3 mg/mL | solubility ([3]; methyl t-butyl ether (MTBE)): <3 mg/mL | solubility (physchem; organic solvent or mixture, N,N-dimethylformamide (DMF)): 228 mg/mL | solubility (physchem; organic solvent or mixture, acetone): 96 mg/mL | solubility (physchem; organic solvent or mixture, acetonitrile (ACN)): 25 mg/mL | solubility (physchem; organic solvent or mixture, chloroform): < 3 mg/mL | solubility (physchem; organic solvent or mixture, dichloromethane): < 3 mg/mL | solubility (physchem; organic solvent or mixture, ethanol (EtOH)): 60 mg/mL | solubility (physchem; organic solvent or mixture, ethyl acetate (EtOAc)): 6 mg/mL | solubility (physchem; organic solvent or mixture, hexanes): < 8 mg/mL | solubility (physchem; organic solvent or mixture, isopropanol (IPA)): < 4 mg/mL | solubility (physchem; organic solvent or mixture, methanol (MeOH)): 160 mg/mL | solubility (physchem; organic solvent or mixture, methyl ethyl ketone (MEK)): 34 mg/mL | solubility (physchem; organic solvent or mixture, methyl t-butyl ether (MTBE)): < 3 mg/mL | solubility (physchem; organic solvent or mixture, tetrahydrofuran (THF)): 86 mg/mL | solubility (physchem; organic solvent or mixture, toluene): < 7 mg/mL | solubility (physchem; water): 48 mg/mL

Cc1cc2c(cc1CC(=O)c1sccc1S(=O)(=O)[N-]c1onc(C)c1Cl)OCO2.[Na+] [Form B, N-(4-chloro-3-methyl-5-isoxazolyl)-2-[2-methyl-4,5-(methylenedioxy)phenylacetyl]thiophene-3-sulfonamide, sodium salt]
weight loss at 5% RH ([1]; sodium salt): 0.13% weight loss at 5% RH, | weight change during the moisture sorption/desorption experiment ([1]; 5 to 95% RH sorption, 95 to 5% RH desorption): loses and gains minimal weight | total weight gain at 95% RH ([1]; sodium salt): 0.98% total weight gain at 95% RH
